Entries after “also recorded” stand apart in the source; their conditions may differ.
Tests used:
[1] = system: zebrafish embryos; assay: HSPC marker expression in chemically treated embryos (whole mount in situ hybridization); assay type: in vivo
Description: (§1) Zebrafish embryos were treated with the following chemical modulators in E3 fish media: 100 uM L-NAME (Fisher Scientific), 50 uM Digitoxigenin (Sigma), 25-50 uM Yoda1 (Cayman Chemical), 1 uM Nanaomycin (Nana; Fisher Scientific), 100 uM Gadolinium chloride (GdCl3; Sigma), 5-10 uM 4α-phorbol 12, 13-didecanaote (4Apdd; Sigma), or GSK205 (10 uM).
Whole mount in situ hybridizations was performed as previously described.

[2] = system: E11.5 AGM cells; assay: Hematopoietic colony formation unit (CFU) and FACS assays on E11.5 AGM cells; assay type: cell-based, mouse; details: for effect on cyclic strain-induced endothelial-to-HSC transition / hematopoietic progenitor formation: in the presence of cyclic strain (stretch)
Description: Pulsating blood vessels like conditions were stimulated in vitro using FLEXCELL FX-4000 cell stretching bioreactor machine. To analyze roles of pharmacological targets in regulating the endothelial-to-HSC transition, mouse embryo-derived AGM or whole mouse embryo were exposed ex vivo with biomechanical stretching, chemicals, or drugs. Next, hematopoietic colony formation assays were performed by incubating mouse AGM-derived cells in StemCell M3434 media for seven days. Serial transplantation of AGM-derived HSCs in lethally irradiated SJL mice were performed. The stem cell frequency upon biomechanical stretching was analyzed using a limiting dilution assay. To characterize properties of AGM-HSC-derived blood cells in primary transplants, percentage chimerism and reconstitution was measured using FACS, globin transcripts were analyzed using quantitative reverse transcriptase-PCR, myeloperoxidase amount was measured using PICOKINE ELISA kit, TCR-β rearrangement was analyzed using PCR for TCR-β locus, pre-immune IG detection was analyzed using Thermo-Fisher Mouse Ig Isotyping kit, and delayed-type hypersensitivity was analyzed by injecting sheep RBC (Rockland Immunochemicals) in the footpad of pre-sensitized mice.
E11.5 AGM were harvested from C57BL6/J Cd45.2 mouse embryos, and a single cell suspension of a three-embryo equivalent of cells was seeded on each well of a BioFlex six-well culture plate (FlexCell). We cultured cells overnight with the application of cyclic strain (Flexcell® FX4000™ Tension System) and/or treatment with chemical modulators (25-50 μM Yoda1, 1 μM Nanaomycin, 100 μM GdCl3, 1 uM GsMTx4, 5-20 μM 4αPDD, 10 uM GSK205). Next, harvested cells were used to perform transplant, fluorescence-activated cell sorting (FACS) analysis, and colony-forming unit (CFU) assays.
E11.5 mouse embryos were harvested from the uterus of the time-mated pregnant female, into sterile glass vials containing FBS, 1 mM glucose, 1% Penicillin-Streptomycin, and/or the selected chemical modulator (25-50 μM Yoda1, 1 μM Nanaomycin, 5-20 μM 4αPDD, or 10 uM GSK205). We placed glass vials in the ex vivo incubator (BTC Engineering, Cambridge, UK) consisting of a roller apparatus (rotating ˜30 rpm), constant gas supply (21% O2, 5% CO2, balance N2) and constant temperature at 37° C. After 24 hours, AGM were harvested to analyze the formation of hematopoietic cells by FACS and CFU assays.
For CFU assays, cells from AGM explant or ex vivo were plated in METHOCULT GF M3434 media (StemCell Technologies). Seven days after seeding, we analyzed their capacity to make granulocyte, erythroid, macrophage, megakaryocyte (GEMM), granulocyte macrophage (GM), granulocyte (G), macrophage (M), and erythroid (E) colonies.
AGM cells from explants and ex vivo were stained with Sca1-Pacific-Blue (E13-161.7, Biolegend) and Flk1-APC-Cy7 (Avas 12α1, BD). Blood from transplanted mice was stained with the following antibody cocktail: Cd45.2-Pacific-Blue (104, Biolegend), Cd45.1-FITC (A20, Biolegend), Cd3-PE (145-2C11, Biolegend), Cd8-PE (53-6.7, Biolegend), Mac1-APC (M1/70, Biolegend), Gr1-APC (108412, Biolegend), Cd19-APC-CY7 (6D5, Biolegend), B220-APC-CY7 (RA3-6B2, Biolegend).

[3] = system: cd41:eGFP+ HSCs emerging from flk1:mCherry+ endothelial cells; assay: Time-lapse confocal imaging of cd41:eGFP+ HSCs emerging from flk1:mCherry+ endothelial cells in transgenic embryos; assay type: in vivo, zebrafish
Description: Mice were purchased Cd45.2 (C57BL6/J) and Cd45.1 (SJL) from The Jackson Laboratory and zebrafish morpholinos from GeneTools. Microangiography was performed by injecting fluorescent-labeled dextran dye in the atrium of zebrafish heart and its passage was recorded using live imaging. Immunostaining of zebrafish heart and mouse AGM were analyzed using an inverted fluorescent microscope. Cardiac tamponade, heart rate, and pulse frequency were analyzed in zebrafish embryos using bright field imaging or time-lapse confocal microscopy. The movement of red blood cells in blood vessels was analyzed as well as the endothelial-to-HSC transition in zebrafish transgenic embryos using time-lapse confocal imaging.
as §1
cd41: eGFP were crossed with flk1:mCherry zebrafish and flk1:mCherry with lcr:eGFP zebrafish and injected morpholino in their transgenic embryos. Transgenic embryos were mounted in low-melting-point agarose and a spinning-disk confocal microscope was used to perform time-lapse confocal imaging of cd41:eGFP^+ HSCs emerging from flk1^+ endothelium from 30 to 42 hpf. The relative movement of lcr:eGFP^+ red blood cells was analyzed in the context of flk1:mCherry^+ endothelium. We performed image analysis using IMARIS (Bitplane) software.

Row | Compound | HSPC marker expression / HSPC formation ([1]; control embryos) | effect on cyclic strain-induced endothelial-to-HSC transition / hematopoietic progenitor formation [2] | HSPC marker expression / HSPC formation ([1]; cdh5-MO embryos) | effect on Piezo1 activation (Yoda1)-mediated increase in HSC formation ([3]; embryos concurrently treated with or without Yoda1, also whole mount in situ hybridization) | specificity for Dnmt3b over Dnmt3a ([3]; transgenic embryos 26-42 hpf) | phenotype of hematopoietic cells after treatment ([2]; E11.5 AGM cells) | effect on Piezo1 activation (Yoda1)-induced endothelial-to-HSC transition ([2]; in the presence of Yoda1)
1 | [Cl][Gd]([Cl])[Cl] [GdCl3, Gadolinium chloride] | attenuated HSPC expression in zebrafish embryos to the level of sih-MO embryos | attenuated | – | – | – | – | –
2 | COC(=O)[C@@H](N)CCCNC(=N)N[N+](=O)[O-] [L-NAME] | attenuates HSPC formation | – | produce HSCs; also recorded: does not impact HSPC formation | – | – | – | –
3 | CC1OC(CC(=O)O)CC2=C1C(=O)c1c(O)cccc1C2=O (stereo not drawn) [Nanaomycin] | attenuated HSPC marker expression | attenuates the endothelial-to-HSC transition | attenuated HSPC marker expression | attenuated the Piezo1 activation-mediated increase in HSC formation | specificity of Nanaomycin for Dnmt3b over Dnmt3a | reverts hematopoietic cells into phenotypic endothelial cells | attenuates the endothelial-to-HSC transition
4 | GsMtX4 | – | attenuates the inductive impact of cyclic strain on the endothelial-to-HSC transition | – | – | – | – | –
